Results: ChEMBL document CHEMBL1201862, “PubChem BioAssay data set” (2004)
Activity calls are given as the source filed them.

How the values were obtained:
[1] = target: T1, Nuclear receptor subfamily 0 group B member 1 (Homo sapiens, UniProt P51843); test: Luminescence-based cell-based high throughput dose response assay for inhibitors of the orphan nuclear receptor subfamily 0, group B, member 1 (DAX1; NR0B1). [Related pubchem assays (depositor defined):AID504766, AID504790]; assay type: functional
T1 sequence (P51843 whole entry): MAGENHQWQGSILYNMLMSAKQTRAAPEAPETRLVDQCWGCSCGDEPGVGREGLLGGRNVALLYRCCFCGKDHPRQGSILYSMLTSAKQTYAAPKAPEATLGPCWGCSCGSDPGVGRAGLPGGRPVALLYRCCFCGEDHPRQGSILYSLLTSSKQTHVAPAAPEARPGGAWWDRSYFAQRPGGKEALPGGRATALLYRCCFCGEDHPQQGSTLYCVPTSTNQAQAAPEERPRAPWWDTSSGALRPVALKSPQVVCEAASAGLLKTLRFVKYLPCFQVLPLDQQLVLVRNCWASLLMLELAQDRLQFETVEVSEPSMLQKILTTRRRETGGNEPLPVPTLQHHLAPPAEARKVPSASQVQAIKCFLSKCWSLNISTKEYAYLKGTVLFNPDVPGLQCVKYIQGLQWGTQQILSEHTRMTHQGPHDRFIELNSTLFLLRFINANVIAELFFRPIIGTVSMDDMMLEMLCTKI

[2] = system: HEK293; test: cells; assay type: functional, cell-based; conditions: Homo sapiens
[3] = target: Phospholipase A2 (Homo sapiens, UniProt P04054); assay type: functional;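 note: confirmatory dose-response counterscreen on phospholipase A2, testing hits that came from an ultra-high-throughput screen for ATG4B inhibitors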
[4] = target: T2, Cysteine protease ATG4B (Homo sapiens, UniProt Q9Y4P1); assay type: functional;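 note: Fluorescence-based dose-response confirmation assay measuring inhibition of ATG4B activity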
T2 sequence (Q9Y4P1 whole entry): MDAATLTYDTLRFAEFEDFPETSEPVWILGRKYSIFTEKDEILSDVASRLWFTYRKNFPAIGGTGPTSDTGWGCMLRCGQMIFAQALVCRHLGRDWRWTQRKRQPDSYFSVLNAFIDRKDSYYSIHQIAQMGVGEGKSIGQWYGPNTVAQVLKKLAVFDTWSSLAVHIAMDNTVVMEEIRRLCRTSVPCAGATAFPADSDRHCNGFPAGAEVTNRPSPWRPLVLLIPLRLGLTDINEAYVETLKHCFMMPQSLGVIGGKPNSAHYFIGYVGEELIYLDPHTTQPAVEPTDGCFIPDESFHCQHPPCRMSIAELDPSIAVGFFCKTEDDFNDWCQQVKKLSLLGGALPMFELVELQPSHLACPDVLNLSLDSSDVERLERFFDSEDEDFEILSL

[5] = target: Protein-tyrosine kinase 2-beta (Homo sapiens, UniProt Q14289);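 note: potency of inhibitors of PYK2 kinase phosphorylation of poly-GT substrate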
[6] = target: Induced myeloid leukemia cell differentiation protein Mcl-1 (Homo sapiens, UniProt Q07820); assay type: functional
[7] = system: CHO; test: cytotoxicity in TLR9-MyD88 CHO cells, dose response, cytotoxicity control for TLR9-MyD88 binding inhibitor project, cell-based, luminescence (AID 588339); assay type: functional, hamster; conditions: Cricetulus griseus;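 note: CHO cells stably coexpressing TLR9 and MyD88 fusions from primary screen; compound exposure lasted 48 hours before viability readout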
[8] = system: HT-1080; test: cytotoxicity in HT1080 fibrosarcoma cells, cell-based, fluorescence readout (AID 620); assay type: functional; conditions: Homo sapiens
[9] = target: Luciferin 4-monooxygenase (Photinus pyralis, UniProt P08659); test: Counter Screen for Luciferase-based Assay Positives. [Related pubchem assays: 620, 618, 411 ]
[10] = target: Nonstructural protein 1 (Influenza A virus, UniProt Q194T2); assay type: functional, Influenza A virus (A/California/07/2009(H1N1))
[11] = target: T3, Caspase-3 (Homo sapiens, UniProt P42574); assay type: functional;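 note: Dose-response selectivity test against caspase-3 for candidate inhibitors of sentrin-specific proteases (SENPs)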
T3 sequence (P42574 whole entry): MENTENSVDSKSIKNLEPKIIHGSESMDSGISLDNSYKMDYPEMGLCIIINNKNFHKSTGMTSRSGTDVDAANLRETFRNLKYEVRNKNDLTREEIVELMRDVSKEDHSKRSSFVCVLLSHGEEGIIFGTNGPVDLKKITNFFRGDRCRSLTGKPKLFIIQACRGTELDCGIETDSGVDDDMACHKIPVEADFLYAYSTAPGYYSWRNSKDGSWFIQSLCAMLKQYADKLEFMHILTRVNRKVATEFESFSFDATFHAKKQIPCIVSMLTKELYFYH

[12] = target: T4, Sentrin-specific protease 8 (Homo sapiens, UniProt Q96LD8); assay type: functional;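 note: luminescence read-out of SENP8 inhibition, dose-response confirmation following an ultra-high-throughput screen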
T4 sequence (Q96LD8 whole entry): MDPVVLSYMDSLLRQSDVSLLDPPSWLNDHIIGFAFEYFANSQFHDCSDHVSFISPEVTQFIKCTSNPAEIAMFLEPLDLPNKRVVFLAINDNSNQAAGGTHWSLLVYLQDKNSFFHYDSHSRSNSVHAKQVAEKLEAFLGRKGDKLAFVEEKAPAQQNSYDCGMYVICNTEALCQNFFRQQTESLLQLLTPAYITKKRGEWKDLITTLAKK

[13] = target: T5, Sentrin-specific protease 6 (Homo sapiens, UniProt Q9GZR1); assay type: functional;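 note: Luminescence-based dose-response confirmatory assay of SENP6 inhibition, following up an ultra-high-throughput screen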
T5 sequence (Q9GZR1 whole entry): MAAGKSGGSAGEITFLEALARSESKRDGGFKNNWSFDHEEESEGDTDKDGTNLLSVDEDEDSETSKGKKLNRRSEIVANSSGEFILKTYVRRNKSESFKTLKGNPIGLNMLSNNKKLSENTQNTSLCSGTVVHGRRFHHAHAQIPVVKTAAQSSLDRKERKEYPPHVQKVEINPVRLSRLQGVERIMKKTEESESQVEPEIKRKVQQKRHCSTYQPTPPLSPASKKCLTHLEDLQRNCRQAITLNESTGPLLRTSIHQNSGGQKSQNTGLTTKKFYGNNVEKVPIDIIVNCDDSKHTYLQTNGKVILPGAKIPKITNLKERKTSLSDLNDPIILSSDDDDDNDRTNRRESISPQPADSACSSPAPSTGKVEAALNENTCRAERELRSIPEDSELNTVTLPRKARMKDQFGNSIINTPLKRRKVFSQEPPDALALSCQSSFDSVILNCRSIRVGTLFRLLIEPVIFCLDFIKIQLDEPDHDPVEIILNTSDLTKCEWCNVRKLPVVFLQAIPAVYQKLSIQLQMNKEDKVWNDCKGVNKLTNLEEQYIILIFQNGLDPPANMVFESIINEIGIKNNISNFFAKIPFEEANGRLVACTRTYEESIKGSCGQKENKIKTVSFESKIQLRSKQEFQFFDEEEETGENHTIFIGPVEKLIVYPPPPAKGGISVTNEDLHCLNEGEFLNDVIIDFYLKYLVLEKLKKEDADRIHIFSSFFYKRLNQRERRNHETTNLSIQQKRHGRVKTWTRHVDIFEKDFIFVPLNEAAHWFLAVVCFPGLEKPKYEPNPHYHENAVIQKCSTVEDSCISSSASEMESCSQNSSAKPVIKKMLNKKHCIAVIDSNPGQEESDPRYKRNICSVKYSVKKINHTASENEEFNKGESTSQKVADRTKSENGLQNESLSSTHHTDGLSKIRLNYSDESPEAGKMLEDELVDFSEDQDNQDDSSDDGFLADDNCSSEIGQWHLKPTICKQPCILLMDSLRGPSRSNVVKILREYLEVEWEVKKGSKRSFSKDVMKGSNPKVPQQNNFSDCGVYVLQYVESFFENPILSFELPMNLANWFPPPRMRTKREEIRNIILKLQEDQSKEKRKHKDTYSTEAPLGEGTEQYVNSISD

[14] = target: T6, Sentrin-specific protease 7 (Homo sapiens, UniProt Q9BQF6); assay type: functional;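 note: Luminescence-based dose-response confirmation of ultra-high-throughput screening hits, measuring inhibition of SENP7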
T6 sequence (Q9BQF6 whole entry): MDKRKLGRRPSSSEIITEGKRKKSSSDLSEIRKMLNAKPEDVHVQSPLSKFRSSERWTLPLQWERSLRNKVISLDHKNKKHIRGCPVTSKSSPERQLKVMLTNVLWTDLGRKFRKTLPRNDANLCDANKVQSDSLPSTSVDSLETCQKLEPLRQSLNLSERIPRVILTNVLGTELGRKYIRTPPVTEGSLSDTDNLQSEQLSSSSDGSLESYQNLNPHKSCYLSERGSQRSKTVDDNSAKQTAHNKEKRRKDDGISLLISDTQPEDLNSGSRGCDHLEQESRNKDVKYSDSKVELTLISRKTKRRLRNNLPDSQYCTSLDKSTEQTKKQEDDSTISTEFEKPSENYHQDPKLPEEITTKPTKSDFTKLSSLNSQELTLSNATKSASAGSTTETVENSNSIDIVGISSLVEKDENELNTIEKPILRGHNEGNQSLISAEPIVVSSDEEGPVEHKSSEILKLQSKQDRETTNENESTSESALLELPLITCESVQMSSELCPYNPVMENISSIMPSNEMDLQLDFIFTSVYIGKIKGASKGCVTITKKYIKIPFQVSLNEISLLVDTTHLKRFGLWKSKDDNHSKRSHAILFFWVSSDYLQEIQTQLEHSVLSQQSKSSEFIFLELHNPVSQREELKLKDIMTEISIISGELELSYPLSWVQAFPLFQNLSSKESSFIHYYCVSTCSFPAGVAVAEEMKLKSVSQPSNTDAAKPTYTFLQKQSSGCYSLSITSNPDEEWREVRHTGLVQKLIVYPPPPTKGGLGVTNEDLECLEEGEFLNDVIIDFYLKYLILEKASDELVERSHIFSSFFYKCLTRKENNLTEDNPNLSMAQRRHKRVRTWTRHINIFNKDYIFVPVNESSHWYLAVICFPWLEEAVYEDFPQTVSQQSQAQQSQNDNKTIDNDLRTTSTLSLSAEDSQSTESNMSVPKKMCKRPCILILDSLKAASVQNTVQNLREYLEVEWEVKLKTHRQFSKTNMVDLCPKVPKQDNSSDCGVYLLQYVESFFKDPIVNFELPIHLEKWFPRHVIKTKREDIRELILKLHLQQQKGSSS

Phospholipase A2, sequence (P04054 whole entry): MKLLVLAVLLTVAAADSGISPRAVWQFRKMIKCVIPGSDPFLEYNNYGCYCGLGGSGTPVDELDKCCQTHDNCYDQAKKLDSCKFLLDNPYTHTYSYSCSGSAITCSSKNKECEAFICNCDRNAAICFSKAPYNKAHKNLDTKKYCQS
Protein-tyrosine kinase 2-beta, sequence (Q14289 whole entry): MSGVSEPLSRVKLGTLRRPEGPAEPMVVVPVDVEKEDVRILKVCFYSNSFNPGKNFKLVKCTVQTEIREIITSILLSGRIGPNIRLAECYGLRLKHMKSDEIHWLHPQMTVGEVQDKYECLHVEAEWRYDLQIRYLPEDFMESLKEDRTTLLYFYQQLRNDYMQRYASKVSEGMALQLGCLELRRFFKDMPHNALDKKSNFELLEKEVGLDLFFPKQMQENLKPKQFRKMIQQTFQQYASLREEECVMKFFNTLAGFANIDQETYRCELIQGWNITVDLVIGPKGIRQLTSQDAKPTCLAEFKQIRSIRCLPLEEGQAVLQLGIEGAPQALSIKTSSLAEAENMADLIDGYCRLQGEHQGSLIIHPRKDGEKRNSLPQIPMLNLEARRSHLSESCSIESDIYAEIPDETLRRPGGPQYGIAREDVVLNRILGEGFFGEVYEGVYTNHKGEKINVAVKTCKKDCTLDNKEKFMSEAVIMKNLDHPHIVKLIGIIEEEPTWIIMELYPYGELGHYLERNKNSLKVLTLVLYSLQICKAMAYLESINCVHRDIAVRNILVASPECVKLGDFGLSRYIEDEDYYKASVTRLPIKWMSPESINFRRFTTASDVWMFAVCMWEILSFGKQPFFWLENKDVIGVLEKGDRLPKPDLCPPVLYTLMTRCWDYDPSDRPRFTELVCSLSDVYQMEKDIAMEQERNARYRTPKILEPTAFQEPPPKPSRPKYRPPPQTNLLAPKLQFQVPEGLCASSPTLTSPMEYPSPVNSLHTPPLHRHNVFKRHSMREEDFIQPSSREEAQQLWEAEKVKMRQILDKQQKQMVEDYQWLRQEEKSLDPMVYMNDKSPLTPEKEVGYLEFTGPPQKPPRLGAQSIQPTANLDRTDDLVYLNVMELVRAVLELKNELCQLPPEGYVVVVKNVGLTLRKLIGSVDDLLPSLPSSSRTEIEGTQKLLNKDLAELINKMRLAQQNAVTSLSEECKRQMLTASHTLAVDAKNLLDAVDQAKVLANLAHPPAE
Nonstructural protein 1, sequence (Q194T2 whole entry): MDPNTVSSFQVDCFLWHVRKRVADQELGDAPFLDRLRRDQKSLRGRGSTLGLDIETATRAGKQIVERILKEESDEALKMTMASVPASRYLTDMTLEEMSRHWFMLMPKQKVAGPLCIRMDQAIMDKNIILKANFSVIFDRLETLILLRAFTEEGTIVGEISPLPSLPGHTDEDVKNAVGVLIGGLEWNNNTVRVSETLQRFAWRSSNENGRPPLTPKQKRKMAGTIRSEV
Luciferin 4-monooxygenase, sequence (P08659 whole entry): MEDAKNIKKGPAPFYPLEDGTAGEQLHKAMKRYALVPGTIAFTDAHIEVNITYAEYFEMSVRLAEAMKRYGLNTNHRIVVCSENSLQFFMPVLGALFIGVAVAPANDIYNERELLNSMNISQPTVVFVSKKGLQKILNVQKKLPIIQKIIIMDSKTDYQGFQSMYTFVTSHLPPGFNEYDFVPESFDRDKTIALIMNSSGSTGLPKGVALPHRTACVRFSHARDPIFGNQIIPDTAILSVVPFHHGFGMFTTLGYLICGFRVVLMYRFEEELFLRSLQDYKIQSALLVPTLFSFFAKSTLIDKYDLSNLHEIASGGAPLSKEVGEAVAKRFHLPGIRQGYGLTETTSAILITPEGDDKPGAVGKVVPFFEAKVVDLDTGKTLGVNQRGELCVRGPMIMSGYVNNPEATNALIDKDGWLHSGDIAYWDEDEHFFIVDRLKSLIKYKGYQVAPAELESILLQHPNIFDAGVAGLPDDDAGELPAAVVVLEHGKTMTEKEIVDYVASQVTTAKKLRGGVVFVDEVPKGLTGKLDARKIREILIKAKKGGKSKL
Induced myeloid leukemia cell differentiation protein Mcl-1, sequence (Q07820 whole entry, the tested form may be a part): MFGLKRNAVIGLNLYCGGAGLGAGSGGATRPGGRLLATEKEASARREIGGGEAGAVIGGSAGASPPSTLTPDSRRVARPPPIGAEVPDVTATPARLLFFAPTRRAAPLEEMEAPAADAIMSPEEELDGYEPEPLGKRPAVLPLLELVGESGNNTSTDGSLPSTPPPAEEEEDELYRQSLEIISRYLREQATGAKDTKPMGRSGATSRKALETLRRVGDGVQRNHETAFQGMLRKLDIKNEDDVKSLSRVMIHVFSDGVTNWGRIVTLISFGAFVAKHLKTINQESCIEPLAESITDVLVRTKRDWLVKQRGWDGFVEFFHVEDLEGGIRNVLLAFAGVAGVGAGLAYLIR

With `Nc1c(O)nc(O)nc1C(=O)OCC(=O)NCc1ccccc1` the IC50 [1] was > 67.5 µM (inactive) and the IC50 [2] was > 67.5 µM (inactive).

`COc1ccc(Cl)cc1-n1c(=S)sc2c(O)nc(SCC(=O)NCCC(C)C)nc21` was tested, and the IC50 [3] was 13.8 µM (active) and the IC50 [4] was 19.5 µM (active).

`COc1ccc(C(=O)c2sc3nc(-c4ccccc4)ccc3c2N)cc1OC` was tested, and the IC50 [5] was 12 µM (not active), the IC50 [6] was 1.27 µM (not active) and the IC50 [7] was 27.3 µM (inactive).

In the case of `Cc1oc(-c2ccccc2Cl)nc1C[S+]([O-])CC(=O)NCc1ccccc1Cl` (stereo not drawn), the IC50 [3] is reported as 7.47 µM (active) and the IC50 [4] is reported as 16.8 µM (active).

With `Clc1ccc(-c2nnc(N3CCCC3)nn2)cc1` the EC50 [8] was > 50 µM (not active), the EC50 [9] was 1.39 µM (active) and the IC50 [10] was > 100 µM (active). The IC50 [1] was > 67.5 µM (inactive) and the IC50 [2] was > 67.5 µM (inactive).

For `CCOC(=O)c1c(C)[nH]c(C(=O)OCC(=O)c2ccccc2)c1C`, the IC50 [11] was 24.3 µM (active), the IC50 [12] was 26.4 µM (active) and the IC50 [13] was 24.4 µM (active). For the same compound, the IC50 [14] was 7.72 µM (active).

For `O=C(Nc1nnc(CCc2ccccc2)s1)c1ccccc1F`, the IC50 [11] was 18.9 µM (active), the IC50 [12] was > 100 µM (inactive) and the IC50 [13] was > 100 µM (inactive). For the same compound, the IC50 [14] was 16.8 µM (active).

`O=C1c2ccccc2C(=O)N1CCc1c[nH]c2ccccc12` was tested, and the IC50 [1] was > 67.5 µM (inactive) and the IC50 [2] was > 67.5 µM (inactive).

For `O=C(N/N=C/C(Br)=C\c1ccccc1)c1cccs1`, the IC50 [11] was 31.6 µM (active), the IC50 [12] was > 100 µM (inactive) and the IC50 [13] was > 100 µM (inactive). The IC50 [14] was 5.94 µM (active).
